Data on three compounds can be found in patent US8137978B2, “Diagnostic method for biomarkers of adverse coronary events” (Saint Louis University, priority 2009, dated 2012).

The structures appear in SMILES notation.

The subject of data set [1] is eosinophil peroxidase in PMA-stimulated eosinophils. The following applies: physiological concentrations of NaCl and NaBr, FIG. 12. The procedure:
Further studies have shown that reactive brominating species (RBS), produced by either MPO- or EPO-released by activated neutrophil or eosinophil, respectively, target plasmalogens. […] Bromide was the preferred substrate for eosinophil peroxidase and chloride was not appreciably used even at a 1000-fold molar excess. […] 2-BrHDA is preferentially produced in PMA-stimulated eosinophils (+PMA) incubated in the presence of physiological concentrations of NaCl and NaBr (FIG. 12). […] These findings may have implications in eosinophilic heart disease as well as pulmonary disease and some cancers, which include eosinophil infiltrations.

Data set [2] has as its system phagocyte. Kind of data set: 2-BrHDA phagocyte chemoattractant activity. The class given is cell-based. The note with it: phagocytes.
In data set [3] the test system is HepG2 cells. As to the kind of experiment: 2-chloropalmitic acid metabolism by HepG2 cells (GC-MS). The class given is in vitro ADME. The following applies: added to cell culture medium, FIG. 9 Panel A. The source says: Two other chlorinated lipids that have prognostic value are α-chloroadipic acid and α-ClFA that is complexed (stored) in triglyceride pools. α-ClFA is metabolized by either storage in triglyceride pools or is broken down in the liver (FIG. 8). In brief α-ClFA is omega oxidized to produce dicarboxylic acids that are shortened and eventually excreted in the urine. […] Concomitant with the loss of 2-chloropalmitic acid is the accumulation of the omega oxidation product, 2-chlorohexadecanedioc acid (Panel B of FIG. 9). Further metabolism of 2-chlorohexadecanedioc acid leads to 2-chlorotetradecanedioc acid (Panel C of FIG. 9) and eventually 2-chloroadipic acid (Panel D of FIG. 9). These metabolites were quantified using gas chromatography-mass spectrometry techniques employing conversion of the carboxylic acids and dicarboxylic acids to their pentafluorobenzyl ester derivatives and negative ion-chemical ionization mass spectrometry.

Take `[N-]=[N+]=[N-]` [azide]: the “2-BrHDA production in the presence of the peroxidase inhibitor” value in data set [1] is given as 2-BrHDA was not produced. As for `CCCCCCCCCCCCCCC(Br)C=O` (stereo not drawn) [2-BrHDA, 2-bromohexadecanal], the chemoattractant activity entry in data set [2] is “phagocyte chemoattractant”. For the compound `CCCCCCCCCCCCCCC(Cl)C(=O)O` (stereo not drawn) [2-chlorohexadecanoic acid], in data set [3], the “2-chloropalmitic acid remaining in cell culture medium over time” value was “decreases in a time and concentration dependent manner”.
